Test results: article PMC6017357, “In Vitro Inhibitory Effects of Synthetic Cannabinoid EAM-2201 on Cytochrome P450 and UDP-Glucuronosyltransferase Enzyme Activities in Human Liver Microsomes” (Molecules : A Journal of Synthetic Chemistry and Natural …, 2018)

Biological target: T1, CYP2D6 (Homo sapiens, UniProt P10635)
T1 construct: from tissue; host or cells: ultrapooled human liver microsomes
Test: CYP2D6-mediated bufuralol 1′-hydroxylation in pooled human liver microsomes
Format: in vitro ADME
Conditions: up to 50 µM, without 30-min preincubation
Description: The inhibitory potential (IC50 values) of EAM-2201 on CYP1A2, CYP2A6, CYP2C8, CYP2C9, CYP2C19, CYP2D6 and CYP3A4 were evaluated using ultrapooled human liver microsomes and a cocktail of seven CYP substrates followed by LC-tandem mass spectrometry (LC-MS/MS) as previously described. […] Aliquots (5 µL) of the diluted supernatants were analyzed using LC-MS/MS. […]
The metabolites formed from CYP substrates were simultaneously quantified using our previously described LC-MS/MS method. […] Quantification was performed by selected reaction monitoring (SRM) of the [M + H]^+ ion and the related product ion for each metabolite: acetaminophen, 152.1 > 110.3; N-desethylamodiaquine, 328.1 > 283.0; 7-hydroxycoumarin, 163.0 > 107.2; 4-hydroxybupropion, 256.1 > 238.0; 4′-hydroxydiclofenac, 312.0 > 231.1; 4′-hydroxy-mephenytoin, 235.1 > 150.1; 1′-hydroxybufuralol, 278.1 > 186.1; 1′-hydroxymidazolam, 341.9 > 324.0; ^13C2,^15N-acetaminophen, 155.1 > 111.2; and d9-1′-hydroxybufuralol, 287.2 > 187.0. […]

T1 sequence (P10635 whole entry): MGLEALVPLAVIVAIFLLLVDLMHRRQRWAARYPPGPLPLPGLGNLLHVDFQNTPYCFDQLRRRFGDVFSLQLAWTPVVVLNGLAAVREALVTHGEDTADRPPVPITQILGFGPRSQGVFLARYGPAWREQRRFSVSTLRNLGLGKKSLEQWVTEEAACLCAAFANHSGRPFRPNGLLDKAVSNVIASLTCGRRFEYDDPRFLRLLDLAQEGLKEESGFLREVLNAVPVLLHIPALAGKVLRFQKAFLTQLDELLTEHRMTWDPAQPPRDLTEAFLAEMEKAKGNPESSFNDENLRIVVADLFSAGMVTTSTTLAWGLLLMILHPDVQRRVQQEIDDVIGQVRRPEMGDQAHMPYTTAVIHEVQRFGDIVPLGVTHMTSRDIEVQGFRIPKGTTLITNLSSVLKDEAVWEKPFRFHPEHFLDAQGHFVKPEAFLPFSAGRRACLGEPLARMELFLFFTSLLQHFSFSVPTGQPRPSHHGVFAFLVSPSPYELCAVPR

CCc1ccc(C(=O)c2cn(CCCCCF)c3ccccc23)c2ccccc12 [EAM-2201, (4-ethyl-1-naphthalenyl)[1-(5-fluoropentyl)-1H-indol-3-yl]-methanone]
inhibition of CYP2D6-mediated bufuralol 1′-hydroxylation: negligibly inhibited
